Like-named read-outs stand apart in the source and are kept apart here.
How the values were obtained:
nuclear phospho-p65 = experiment: Western blot of nuclear phospho-p65 in CD40L-stimulated CIA B cells; type: cell-based, mice; details: 33 nM for 1 h, 50 ng/mL CD40L
Experimental: (§1) FIG. 8. […] Values represent mean light units produced. Error bars represent SEM, and statistical significance was determined by unpaired T-test. Single and double asterisks represent P-values of 0.01 or 0.001, respectively. […] Samples were harvested at designated time points and were fractionated into nuclear and cytoplasmic lysates (Pierce). Lysates were quantified using BCA (Pierce), and were equally loaded according to total protein. Membranes were probed for levels of nuclear phospho-p65 (ReIA), phospho-ReIB, and histone (histone served as loading control and fractionation method control) and cytoplasmic degradation of IκBα (beta-tubulin served as loading control and fractionation method control).
(§2) HeLa cells were co-transfected with the reporter pNFκB-luc and control vector pTAL (Renilla) for 18 h prior to incubation with 0-500 nM cardiac glycoside for 6 h. Cells are stimulated with 50 ng/mL TNF. […] FIG. 8 B).

[1] = Serum concentration obtained with experimental dosing regimen, mouse; type: in vivo; details: 0.3 mg/kg per diem, i.p., experimentally determined
Experimental: Dosing regimens in humans vary according to the cardiac glycoside and constitution thereof. Table 3 depicts representative dosing regimens reported in the literature compared to experimental regiments used in mice that are representative of human dosing. Successful dosing detailed in this application includes but is not limited to 0.03-0.4 mg/kg., or from 0.001 to 5 mg/kg.

[2] = test system: naïve CD4+ T cells, regulatory T cells; experiment: Mixed lymphocyte study, pre-treated CIA B cells with naïve CD4+ T cells; type: cell-based, mice; details: B cells treated 33 nM for 1 hr, co-culture 72 hr
Experimental: FIG. 25. […] (A) Representative data from mixed lymphocyte studies. […] B cells were washed, replated in complete RPMI supplemented with BAFF (1 ng/mL), anti-CD3 antibody (4 μg/mL) and were added to 5×10^5 naïve CD4^+ T cells purified by MACS. Cells were incubated for 72 hr prior to harvest. IL-6, IL-10, TGFβ and IL-17 cytokine levels were measured by ELISA (R&D Systems, Peprotech, and eBiosciences). Data represent the average absorbance (A450) of triplicates and error bars represent the SEM. […] Cells were fixed in 4% paraformaldehyde for 15 minutes, washed twice with PBS and blocked with FACS buffer. Cells were stained for regulatory T cells using anti-TCRβ, anti-CD4, anti-CD25 and anti-FoxP3 antibodies (Cell Signaling Technologies, R&D Systems, AbCam). FACS was performed on the FACS Aria (Becton-Dickenson). Data represent the average population in 500,000 cells from 4 mice per treatment group. Error bars represent the SEM.
It is known that B cells can regulate T cell differentiation and in many states of autoimmune disease, an imbalance of Th1, Th2, and Th17 T cell populations exist. […] We performed studies to determine the regulatory effector function of B cells pre-treated with cardiac glycoside on T cell differentiation. […]

[3] = CHCI3/16% aqueous methanol (MeOH); cited from earlier work
[4] = Human, oral; Smith, TW (1970); cited from earlier work
[5] = test system: TNF-mediated NFκB activity in HeLa cells; experiment: NFκB luciferase reporter assay in TNF-stimulated HeLa cells; type: cell-based; details: pre-treatment 6 hours with 0-500 nM, 50 ng/mL TNF
Experimental: as §1, §2

[6] = test system: naïve CD4+ T cells, Th17 differentiation; experiment: Th17 T cell differentiation in co-culture with pre-treated CIA B cells; type: cell-based, mice; details: B cells treated 33 nM for 30 minutes, washed, co-culture 72 hr in Th17 differentiation media
Experimental: FIG. 24. […] At endpoint, IL-17 cytokine levels were quantified by ELISA (R&D Systems). (B) IL-10 cytokine production was also assessed in each sample by ELISA (eBiosciences). Data represent the average of triplicates and error bars represent the SEM. Statistical significance was determined by the students t-test.
It is known that B cells can regulate T cell differentiation and in many states of autoimmune disease, an imbalance of Th1, Th2, and Th17 T cell populations exist. […] We performed studies to determine the regulatory effector function of B cells pre-treated with cardiac glycoside on T cell differentiation. B cells blocked naïve CD4^+ T cell differentiation into Th17 cells when cardiac glycoside was administered to B cells 30 minutes prior to co-culture with T cells (FIG. 24 A). Additionally, the pre-treatment of B cells with cardiac glycoside inhibited Th17 differentiation in a STAT3-dependent manner (FIG. 25A). […] Cardiac glycosides can be administered to patients to induce IL-10 expressing B cells and to modulate T cell differentiation and increase numbers of Tregs which reduce autoimmune disease progression.

Which “amount of nuclear phospho-p65 following CD40L stimulation” value (nuclear phospho-p65) does the source give for `C[C@H]1O[C@@H](O[C@H]2[C@@H](O)C[C@H](O[C@H]3[C@@H](O)C[C@H](O[C@H]4CC[C@@]5(C)[C@H](CC[C@@H]6[C@@H]5CC[C@]5(C)[C@@H](C7=CC(=O)OC7)CC[C@]65O)C4)O[C@@H]3C)O[C@@H]2C)C[C@H](O)[C@@H]1O` [Digitoxin, digitoxin] here?
Its value is “significantly reduced”.

What about the “Serum conc.” value [1] of the same molecule?
Its value is 19 ng/mL.

And the “induction of regulatory T cells in vitro” value [2]?
The value was “induce regulatory T cells”.

And the “Partition Coefficient” value [3]?
The value was 96.5.

What about the “Serum conc.” value [4] of the same molecule?
The value was 17 ng/mL.

What about the “TNF-mediated NFκB activation (luciferase light units)” value [5] of the same molecule?
The value was “reduced TNF-mediated NFκB activation in a dose-dependent fashion”.

What about the “Th17 cell differentiation (IL-17 by ELISA)” value [6] of the same molecule?
Its value is “down-regulates Th17 cell differentiation”.

From patent publication US20140011755A1, “Cardiac Glycosides for Treating Autoimmune Disease” (Department of Veterans Affairs, priority 2010, published 2014)
